Measurements taken from PubChem BioAssay (NCI).
Where “and” joins values, the source holds several entries; their conditions need not be identical. Equal entries are not always repeated.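 All cell lines were grown in 96-well plates and treated with compound for 48 hours. GI50 = concentration required for 50% inhibition of growth. TGI marks complete inhibition of growth.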

Assays:
Assay in all cases: NCI tumour cell line growth inhibition, 48 h
SF-295 CNS = test system: SF-295 CNS
EKVX NSCLC = test system: EKVX NSCLC
SW-620 colon = test system: SW-620 colon
NCI-H460 lung = test system: NCI-H460 lung
LOX IMVI melanoma = test system: LOX IMVI melanoma
MDA-MB-435 = test system: MDA-MB-435
MCF7 breast = test system: MCF7 breast
CAKI-1 renal = test system: CAKI-1 renal
KM12 colon = test system: KM12 colon
COLO 205 colon = test system: COLO 205 colon

SMILES	GI50 (SF-295 CNS)	TGI (SF-295 CNS)	GI50 (EKVX NSCLC)	TGI (EKVX NSCLC)	GI50 (SW-620 colon)	TGI (SW-620 colon)	GI50 (NCI-H460 lung)	TGI (NCI-H460 lung)	GI50 (LOX IMVI melanoma)	TGI (LOX IMVI melanoma)	GI50 (MDA-MB-435)	TGI (MDA-MB-435)	GI50 (MCF7 breast)	TGI (MCF7 breast)	GI50 (CAKI-1 renal)	TGI (CAKI-1 renal)	GI50 (KM12 colon)	TGI (KM12 colon)	GI50 (COLO 205 colon)	TGI (COLO 205 colon)
S=C(Nc1ccc(-c2nc3ccccc3s2)cc1)Nc1ccccn1	24.5 µM	66.3 µM	12.2 µM	> 50.1 µM	40.1 µM	> 100 µM	41.2 µM	> 100 µM	18.2 µM	39.4 µM	28.4 µM	97.2 µM	> 100 µM	> 100 µM	17.3 µM	45.7 µM	21.9 µM	> 70.8 µM	18.9 µM	42.3 µM
O=C(/C=C/c1ccccc1Cl)c1ccc(O)cc1	8.97 µM	23.7 µM	10 µM	25.8 µM	2.89 µM	7.88 µM	4.4 µM	16.8 µM	3.09 µM	10.3 µM	4.23 µM	17.6 µM	2.45 µM	7.54 µM	6.87 µM	20.2 µM	3.57 µM	11.6 µM	12.8 µM	34.8 µM
CCN(CC)CCC(CNc1c2ccc([N+](=O)[O-])cc2nc2cc(OC)c(OC)cc12)c1ccccc1 (centres undefined)	1.09 µM and 0.93 µM	2.49 µM and 2.65 µM	0.335 µM and 0.264 µM	1.38 µM and 1.13 µM	0.145 µM and 0.0727 µM	1.1 µM and 0.763 µM	0.118 µM and 0.0525 µM	1.05 µM and 0.631 µM	0.568 µM and 0.527 µM	1.86 µM	0.161 µM and 0.148 µM	0.311 µM and 0.319 µM	0.0363 µM and 0.0428 µM	0.905 µM and 1.23 µM	1.68 µM and 1.58 µM	3.78 µM and 3.76 µM	0.276 µM and 0.105 µM	1.13 µM and 0.542 µM	0.152 µM and 0.0895 µM	0.448 µM and 0.299 µM
Nc1cccc(-c2nc3sccn3c2-c2ccnc(NCCCNS(=O)(=O)c3ccc(C(F)(F)F)cc3)n2)c1	3.08 µM	10.1 µM	6.09 µM	86.1 µM	8 µM	> 100 µM	4.58 µM	58.6 µM	3.27 µM	16.1 µM	3.21 µM	12.3 µM	4.04 µM	18.5 µM	3.25 µM	72.1 µM	3.6 µM	13.8 µM	3.32 µM	13.1 µM
COc1ccc(C2=C(Br)C(=O)OC2)cc1Cl	34 µM	98.4 µM	16.7 µM	71.4 µM	32.2 µM	> 100 µM	33.2 µM	> 100 µM	18.9 µM	46.5 µM	27.4 µM	> 100 µM	29.6 µM	> 93 µM	8.52 µM	51.1 µM	23.6 µM	> 84.4 µM	0.832 µM	> 30.9 µM
COc1cc(-c2nn(C)nc2-c2cc3ccccc3s2)cc(OC)c1OC	0.036 µM	15.3 µM	0.466 µM	> 100 µM	0.0633 µM	> 100 µM	0.0699 µM	> 100 µM	0.169 µM	> 100 µM	0.0257 µM	0.0995 µM	0.0403 µM	> 100 µM	3.77 µM	> 100 µM	0.0549 µM	> 100 µM	0.082 µM	0.515 µM
O=C(/C=C\c1cccc([N+](=O)[O-])c1)c1ccccc1	7.68 µM	29.5 µM	13.1 µM	29.1 µM	1.81 µM	5.82 µM	7.54 µM	28.5 µM	1.76 µM	3.82 µM	3.53 µM	14.4 µM	1.81 µM	9.71 µM	2.53 µM	5.8 µM	2.36 µM	5.41 µM	2.04 µM	4.12 µM
N#CC(NC12CC3CC(CC(C3)C1)C2)c1ccccc1 (centres undefined)	–	> 100 µM	–	> 100 µM	–	> 100 µM	–	> 100 µM	–	> 100 µM	–	> 100 µM	–	> 100 µM	–	> 100 µM	–	> 100 µM	–	> 100 µM
COC(=O)C1=C(C(=O)Nc2cccnc2)C2OC1(C(Cc1ccccc1)Oc1ccccc1)C1OC21 (centres undefined)	14.6 µM	28.6 µM	11.8 µM	27.2 µM	1.69 µM	3.58 µM	16.4 µM	34.1 µM	1.83 µM	3.68 µM	3.79 µM	13.6 µM	1.92 µM	5.33 µM	1.78 µM	4 µM	14.6 µM	33.3 µM	1.73 µM	3.29 µM
Cc1ccccc1NC(=O)N/C(N)=N/c1nc2ccccc2s1	0.0292 µM	1.17 µM	–	> 100 µM	0.0427 µM	> 100 µM	0.113 µM	> 100 µM	0.0759 µM	> 100 µM	0.0208 µM	0.0553 µM	0.0359 µM	> 100 µM	0.0499 µM	> 100 µM	0.0399 µM	> 100 µM	0.0514 µM	4.28 µM
COc1ccccc1/C=C1\CCC(CN(C)C)C1=O (centres undefined)	–	29.7 µM	–	38.9 µM	–	6 µM	–	44.5 µM	–	4.67 µM	–	25.2 µM	–	5.87 µM	–	12 µM	–	12.4 µM	–	8.38 µM
CCOC(=O)CC(=O)N(c1ccc(OC)cc1)C(C(=O)OC)c1ccccc1 (centres undefined)	–	> 100 µM	–	> 100 µM	–	> 100 µM	–	> 100 µM	–	> 100 µM	–	> 100 µM	–	> 100 µM	–	> 100 µM	–	> 100 µM	–	> 100 µM
CC(C)[C@@H]1NC(=O)[C@]2(C)CSC(=N2)c2csc(n2)CNC(=O)C[C@@H](/C=C/CCS)OC1=O	0.0358 µM	0.51 µM	0.198 µM	> 100 µM	0.227 µM	2.28 µM	0.0332 µM	> 100 µM	0.131 µM	0.355 µM	0.0612 µM	4.17 µM	0.274 µM	> 100 µM	1.83 µM	7.83 µM	0.0526 µM	> 32.4 µM	0.228 µM	0.709 µM
